Experimental data: patent US20150087037A1, “FERMENTATION PROCESS” (LanzaTech New Zealand Limited, priority 2013, published 2015)

Key:
[1] = tested on: C. autoethanogenum DSM23693; assay: Fermentation started in the presence of 2-HIBA, impact on growth (Example 5); type: cell-based, Clostridium autoethanogenum
Description: (§1) Fermentations with C. autoethanogenum DSM23693 were carried out in 1.5 L bioreactors at 37° C. The media was prepared according to Table 1. To achieve anaerobicity the reactor vessel was sparged with nitrogen. Prior to inoculation, the gas was switched to either steel mill gas containing H2 (3%), N2 (30%), CO (47%) and CO2 (20%) or pure gases (50% CO, 18-40% CO2, with the balance N2). The gas flow was initially set at 67 ml/min/L, increasing to 200 ml/min during mid-exponential phase, while the agitation was increased from 200 rpm to 800. Na2S was dosed into the bioreactor at 0.25 ml/hr. Once the OD600 reached 1.5, the bioreactor was switched to a continuous mode at a dilution rate of 2.0-1.6 d-l and a bacterial dilution rate of 0.9-0.6 d-l. During continuous mode gas and agitation were adjusted to 900-950 rpm and 800-900 ml/min. Na2S was increased to 1.0 ml/hr.
(§2) Liquid culture samples were taken at differing intervals over the duration of the fermentation. These samples were used to establish the optical density at 600 nm (spectrophotometer) and the level of substrates and products (high performance liquid chromatography—HPLC). HPLC was routinely used to quantify the level of acetate, ethanol and 2,3-butanediol. The input and output gas compositions were analysed using a gas chromatographer (GC), allowing measurement of CO and H2 consumption and CO2 production by the culture.
To see if the 2-HIBA impacts negatively on growth a fermentation was started in the presence of 0.05 g/L (0.48 mM) 2-HIBA. During growth gas and agitation were increased so that by day 5.0 the agitation had reached a maximum of 950 rpm and the gas flow 800 ml/min. At this time the dilution rate was 1.8 day^−1 and the bacterial dilution rate 0.85 day^−1.

[2] = tested on: branch chain amino acid production; assay: Monitoring BCAA production during 2-HIBA addition (Example 7); type: cell-based, Clostridium autoethanogenum; settings: FIG. 11
From the text: In order to generate further evidence that 2-HiBA interferes with branch chain amino acid production, the concentrations of these amino acids were monitored directly before and after the addition of 2-HIBA. FIG. 11 illustrates the results; immediately after the addition of 2-HIBA the concentrations of valine, leucine and isoleucine drop as well as biomass.

[3] = tested on: Ketol-acid reductoisomerase IlvC; assay: Inhibition of ketol-acid reductoisomerase; type: biochemical, Clostridium autoethanogenum; settings: mode of action proposed from gene expression and BCAA data
From the text: The addition of 2-HIBA impacts the metabolism of Clostridium autoethanogenum. […] In native systems the expression and activity of Acetolcatate synthase IlvBN is down regulated by branched chain amino acid synthesis. The addition of 2-HIBA to the fermentation inhibits Ketol-acid recuctoisomerase IlvC, branch chained amino acid biosynthesis, which results in a decrease in the concentration of valine, isoleucine and leucine. As a result, feedback inhibition of the IlvBN enzyme by valine, isoleucine and leucine is removed. This causes an increase in acetolactate production. An increase in the acetolactate pool leads to an overflow of carbon to 2,3-butanediol. The conversion of acetolactate and acetoin to 2,3-BDO are not rate limited, and conversion to 2,3-BDO freely occurs without the need to further up regulate enzymes responsible for the conversion of acetolactate to acetoin and/or the conversion of acetoin to 2,3-BDO.
Ketol-acid reductoisomerase is inhibited by the presence of 2-HIBA. It is considered that other compounds having similar structural characteristics to 2-HIBA and the substrates that the enzyme works on (acetolactate. 2-oxo-3-hydroxyisovalerate and 2,3-dihydroxy-3-methylbutanoate) would have a similar effect on Ketol acid reductoisomerase. […]

[4] = tested on: C. autoethanogenum DSM23693; assay: Linked two reactor (R1, R2) fermentation system, continuous 2-HIBA addition (Examples 2 and 3); type: cell-based, Clostridium autoethanogenum
Description: as §1, §2
A two reactor system was used to examine the impact of continuous 2-HIBA addition on the metabolite profile. Initially 0.5 g/L/day (4.8 mM/day) 2-HIBA was added to the R2 only, this increased the production of 2,3-BDO but the ratio only dropped to as low as 1.9:1. Continuous addition of 2-HIBA at 0.5 g/L/day (4.8 mM/day) was then added to the R1. […] This would be achieved by improving the concentration in both the R1 and the R2 as the 2-HIBA is transferred from the R1 to the R2 (through liquid flow) along with improved 2,3-BDO concentrations. The 2,3-BDO concentration increased from 5.7 g/L to 14 g/L in the R1 and from 16 g/L to 21 g/L in the R2 (see FIGS. 3 and 4). The ratio of ethanol:2,3-BDO dropped to 1:1 in the R1 and 1.3:1 in the R2 and remained stable for a period of eight days. The improvement of the ratio was achieved as a result of increased 2,3-BDO concentration and a drop in ethanol production.
Over time the ethanol concentration after the 2-HIBA addition improved whilst the concentration of 2,3-BDO remained stable, this had the effect of improving the total alcohol productivity of the system.
The results achieved in Example 2 were repeated with the aim to improve the overall titre of 2,3-BDO. In this experiment the 2-HIBA concentration was increased to 1 g/L/day (9.6 mM/day).

[5] = over time after 2-HIBA addition
[6] = R1, average across eight days, 0.5 g/L/day 2-HIBA
[7] = R1, gas data average across eight days, 0.5 g/L/day 2-HIBA
[8] = R2, average across eight days, 0.5 g/L/day 2-HIBA
[9] = R2, gas data average across eight days, 0.5 g/L/day 2-HIBA

SMILES: CC(C)(O)C(=O)O [2-HIBA, 2-hydroxyisobutyric acid]
- average ethanol concentration ([1]; 0.05 g/L (0.48 mM) 2-HIBA): 17 g/L
- impact on the growth of the fermentation ([1]; 0.05 g/L (0.48 mM) 2-HIBA in the media from start): no impact on the growth
- 2,3-butanediol concentration ([1]; 0.05 g/L (0.48 mM) 2-HIBA, average): 15.5 g/L
- concentrations of valine, leucine and isoleucine and biomass ([2]; immediately after the addition of 2-HIBA (100 mg, 0.96 mM)): drop
- concentration of isoleucine [2, 5]: appears to recover
- concentration of leucine and valine [2, 5]: remaining lower than the value before 2-HIBA addition
- effect on Ketol-acid reductoisomerase [3]: inhibited
- impact on CO and hydrogen uptake ([4]; 0.5 g/L/day 2-HIBA, FIGS. 5 and 6): did not negatively impact
- 2,3-BDO concentration in R1 ([4]; 0.5 g/L/day (4.8 mM/day) 2-HIBA added to R1, increased from 5.7 g/L): 14 g/L
- impact on gas uptake ([4]; 1 g/L/day (9.6 mM/day) 2-HIBA): not negatively impacted
- overall 2,3-BDO concentration ([4]; 1 g/L/day (9.6 mM/day) 2-HIBA, highest reached, FIG. 7): 23.9 g/L
- Acetate ([4]; R1, average across eight days of stable operation, 0.5 g/L/day 2-HIBA): 6.5 g/L
- 2,3 BDO [4, 6]: 13.7 g/L
- 2,3 BDO productivity [4, 6]: 27 g/L/day
- Biomass [4, 6]: 9.2 g/L
- Ethanol [4, 6]: 14.4 g/L
- Lactate [4, 6]: 0.0 g/L
- CO2 production [4, 7]: 5630 mmol/L
- CO uptake [4, 7]: -8830 mmol/L
- CO utilisation [4, 7]: 53%
- H2 production [4, 7]: 423 mmol/L
- 2,3 BDO [4, 8]: 21.3 g/L
- 2,3 BDO productivity [4, 8]: 16 g/L/day
- Acetate [4, 8]: 7.8 g/L
- Biomass [4, 8]: 15.6 g/L
- Ethanol [4, 8]: 28.3 g/L
- Lactate [4, 8]: 0.0 g/L
- CO2 production [4, 9]: 4932 mmol/L
- CO uptake [4, 9]: -7930 mmol/L
- CO utilisation [4, 9]: 63%
- H2 production [4, 9]: 413 mmol/L
